# Data from patent US20260374739A1, “SMALL MOLECULAR WEIGHT CHEMICAL COMPOUND TO ANTAGONIZE EPH-EPHRIN TETRAMERIZATION AND INHIBIT BIDIRECTIONAL SIGNALING” (THE BOARD OF REGENTS OF THE UNIVERSITY OF TEXAS SYSTEM, priority 2022, published 2026).
# Where “and” joins values, the source holds several entries; their conditions need not be identical. Equal values may be shown once.
# Legend:
# EphB2-EphrinB2 = biological target: T1, EphB2-EphrinB2 (Mus musculus, UniProt P54763); experiment: Octet, immobilized mouse EphB2 binding to mouse EphrinB2; settings: for IC50: immobilized mouse EphB2, 50 nM soluble mouse EphrinB2
# T1 sequence (P54763 19-543 limits assumed): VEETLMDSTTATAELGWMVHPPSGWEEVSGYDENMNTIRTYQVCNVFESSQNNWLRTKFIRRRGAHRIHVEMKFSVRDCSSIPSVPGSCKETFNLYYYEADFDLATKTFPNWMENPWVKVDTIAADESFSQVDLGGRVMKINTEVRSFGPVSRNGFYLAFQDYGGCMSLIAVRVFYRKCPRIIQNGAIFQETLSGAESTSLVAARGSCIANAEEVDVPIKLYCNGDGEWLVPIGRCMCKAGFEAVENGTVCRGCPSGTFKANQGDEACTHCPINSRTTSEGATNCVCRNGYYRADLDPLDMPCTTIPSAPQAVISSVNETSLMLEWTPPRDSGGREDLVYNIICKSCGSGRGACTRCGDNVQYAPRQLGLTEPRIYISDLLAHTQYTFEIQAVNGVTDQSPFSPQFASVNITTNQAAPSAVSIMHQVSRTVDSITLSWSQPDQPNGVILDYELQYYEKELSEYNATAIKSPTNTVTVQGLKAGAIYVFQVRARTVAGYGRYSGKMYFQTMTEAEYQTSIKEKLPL
# Excerpt: The novel compound A20-I is a halogen replacement that changes the 7-bromine in A20 for iodine and had enhanced tetramerization inhibitor activity (FIGS. 38A-38D). This is evident when comparing results of A20-I and A20 salt compounds on the interaction of immobilized mouse EphB2 ectodomain binding to soluble mouse EphrinB2 ectodomain (FIG. 38A and FIG. 38B) or soluble human EphrinA5 (FIG. 38C). […] During these interactions of immobilized EphB ectodomains binding to soluble EphrinB2, the tetramer is much more surmountable by addition of an active compound than for the reverse experiment where EphrinB2 is immobilized and EphB2 is the soluble component in the assay (see FIG. 11, FIG. 17, and FIG. 25A-FIG. 25C). It is believed that the more resistant unsurmountable tetramer formed by immobilized EphrinB2 binding to soluble EphB ectodomains provides for the most rigorous test for determining IC50 values and thus utilizing this EphrinB2-EphB2 assay for analysis of all compounds, provide uniformity in observed results. The results described herein with A20-I and using the human EphrinB2-EphB2 interaction indicates replacements can be made in the 7-bromine in A20 that lead to enhanced tetramerization inhibitor activity.
# EphB1-EphrinB2 (EB2) = biological target: T2, EphB1-EphrinB2 (EB2) (Rattus norvegicus, UniProt P09759); experiment: Alpha assay EphB1-EphrinB2 (EB2) interaction; format: binding, mouse EB2
# T2 construct: rat EphB1-Fc residues 18-538; mouse EB2-His residues 18-232; purchased R&D Systems (EphB1-Fc); Sino Biologicals (EB2-His)
# T2 sequence (P09759 18-538): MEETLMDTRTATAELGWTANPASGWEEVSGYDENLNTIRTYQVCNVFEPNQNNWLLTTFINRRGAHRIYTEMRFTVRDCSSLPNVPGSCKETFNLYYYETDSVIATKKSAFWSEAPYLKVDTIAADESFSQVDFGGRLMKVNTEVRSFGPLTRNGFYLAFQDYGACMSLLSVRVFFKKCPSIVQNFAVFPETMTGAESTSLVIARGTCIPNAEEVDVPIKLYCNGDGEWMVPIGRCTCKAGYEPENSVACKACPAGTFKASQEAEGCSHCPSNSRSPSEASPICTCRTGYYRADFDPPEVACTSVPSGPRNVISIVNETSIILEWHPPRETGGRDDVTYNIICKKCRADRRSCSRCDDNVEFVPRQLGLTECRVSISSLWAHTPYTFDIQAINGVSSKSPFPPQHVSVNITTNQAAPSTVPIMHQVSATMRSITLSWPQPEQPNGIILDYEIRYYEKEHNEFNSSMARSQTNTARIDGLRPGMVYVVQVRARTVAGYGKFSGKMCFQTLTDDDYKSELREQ
# Excerpt: A chemiluminescent AlphaScreen™ bead-based proximity assay suitable for HTS was developed to measure the receptor-ligand interaction formed between EphB1 and EphrinB2 (EB2) ectodomains (FIG. 3). Here, when singlet oxygen molecules generated by high energy irradiation of donor beads travel over a constrained distance to excite acceptor beads, a chemiluminescent signal is generated and detected. If an analyte interferes with the EphB1-EB2 protein-protein interaction, close proximity of the donor and acceptor beads will be disrupted resulting in diminished or lost energy transfer and reduced acceptor bead emission.
# Test was conducted in the Alpha assay, to see if purified soluble Reelin (previously shown to bind EphB1 ectodomain) can interfere with EphB1-EB2 binding.
# The EphB1-EB2 screen was conducted using 0.8 nM of each protein, 50 ng beads per well, and assessed at 5 μM a library of −240,000 small, drug-like chemicals. […] They were also tested in a counter screen designed to identify non-specific compounds. Here, a single-protein Alpha assay was set up using a dual-tagged EphB2-His-Fc ectodomain protein that can bind both donor and acceptor beads to bring them into proximity. If a selected compound simply absorbs the chemiluminescent signal or interferes with bead function/binding or protein folding, it was hypothesized that it would also reduce signals in the single protein assay, and would consider it a false positive.
# [1] = Absolute Association IC50, mEphB2-mEphrinB2, association, absolute
# [2] = Absolute Dissociation IC50, mEphB2-mEphrinB2, dissociation, absolute
# [3] = Relative Association IC50, mEphB2-mEphrinB2, association, relative
# [4] = Relative Dissociation IC50, mEphB2-mEphrinB2, dissociation, relative
SMILES,elimination of tetramer (EphB2-EphrinB2; 100 μM),IC50 (EphB2-EphrinB2; [1]),IC50 (EphB2-EphrinB2; [2]),IC50 (EphB2-EphrinB2; [3]),IC50 (EphB2-EphrinB2; [4]),antagonism of EphB1-EB2 (EphB1-EphrinB2 (EB2))
"Oc1c(I)cc(CN2CCOCC2)c2cccnc12 [Compound 7, 7-iodo-5-(morpholinomethyl)quinolin-8-ol]",eliminated all tetramer species,–,–,–,–,–
"O=S1(=O)CCN(Cc2ccc(O)c3ncccc23)CC1 [Compound 15, 4-((8-hydroxyquinolin-1-ium-5-yl)methyl)thiomorpholin-4-ium 1,1-dioxide chloride]",–,100 µM,6.53 µM,6.31 µM,0.99 µM,–
"COc1ccccc1N1CCN(Cc2cc(Br)c(O)c3ncccc23)CC1 [Compound 70, 7-bromo-5-((4-(2-methoxyphenyl)piperazin-1-yl)methyl)quinolin-8-ol]",–,–,–,–,–,may be as effective as A20 at antagonizing EphB1-EB2 and EphB2-EB2 interactions
"Oc1ccc(CN2CCN(c3ccc(Br)cc3)CC2)c2cccnc12 [Compound 26, 5-((4-(4-bromophenyl)piperazin-1-yl)methyl)quinolin-8-ol]",–,–,–,–,–,strong dose-dependent antagonist activity
"Oc1c(CN2CCCCC2)cc(Cl)c2cccnc12 [Compound 76, 5-chloro-7-(piperidin-1-ylmethyl)quinolin-8-ol, reference compound]",–,–,–,–,–,did not exhibit any activity
"Oc1ccc(CN2CCCCC2)c2cccnc12 [Compound 68, 5-(piperidin-1-ylmethyl)quinolin-8-ol, reference compound]",–,–,–,–,–,did not exhibit any activity
"O=[N+]([O-])c1cc(CN2CCOCC2)c2cccnc2c1O [Compound 10, 4-((8-hydroxy-7-nitroquinolin-1-ium-5-yl)methyl)morpholin-4-ium chloride]",–,< 10 µM,< 10 µM,< 10 µM,< 10 µM,–
"Oc1c(Br)cc(CN2CCOCC2)c2cccnc12 [Compound 6, 4-((7-bromo-8-hydroxyquinolin-1-ium-5-yl)methyl)morpholin-4-ium chloride]",–,2.92 µM,0.68 µM,1.04 µM,0.5 µM,–
"Oc1ccc(CN2CCN(c3ccc(F)cc3F)CC2)c2cccnc12 [Compound 62, 5-((4-(2,4-difluorophenyl)piperazin-1-yl)methyl)quinolin-8-ol]",–,–,–,–,–,some inhibitory activity though it was not apparent until higher concentrations
"Oc1c(I)cc(CN2CCOCC2)c2cccnc12 [Compound 8, 4-((8-hydroxy-7-iodoquinolin-1-ium-5-yl)methyl)morpholin-4-ium chloride]",–,0.69 µM and 1.3 µM,0.47 µM and 0.51 µM,0.3 µM and 0.41 µM,0.25 µM and 0.51 µM,–
"Oc1ccc(CN2CCOCC2)c2cccnc12 [Compound 1, 5-(morpholinomethyl)quinolin-8-ol]",–,100 µM,9.9 µM,10.9 µM,0.9 µM,some inhibitory activity though it was not apparent until higher concentrations
"COCc1cc(CN2CCN(C)CC2)c(O)c2ncccc12 [Compound 77, 5-(methoxymethyl)-7-((4-methylpiperazin-1-yl)methyl)quinolin-8-ol, reference compound]",–,–,–,–,–,did not exhibit any activity
"Oc1c(Cl)cc(CN2CCOCC2)c2cccnc12 [Compound 4, 4-((7-chloro-8-hydroxyquinolin-1-ium-5-yl)methyl)morpholin-4-ium chloride]",–,4.29 µM,0.9 µM,0.94 µM,0.63 µM,–
"Oc1c(Cl)cc(CN2CCOCC2)c2cccnc12 [Compound 3, 7-chloro-5-(morpholinomethyl)quinolin-8-ol]",–,–,–,–,–,may be as effective as A20 at antagonizing EphB1-EB2 and EphB2-EB2 interactions
"Oc1ccc(CN2CCN(Cc3ccc(C(F)(F)F)cc3)CC2)c2cccnc12 [Compound 48, 5-((4-(4-(trifluoromethyl)benzyl)piperazin-1-yl)methyl)quinolin-8-ol]",–,100 µM,8.12 µM,12.1 µM,2.12 µM,–
